Source: the Kinase Knowledgebase extract (Sharma et al. 2016)

Molecular target: PIK3CA (human) (UniProt P42336)
Experiment: Inhibition of PIK3CA Kinase Activity

Chain of PIK3CA (human) (P42336 whole entry, looked up): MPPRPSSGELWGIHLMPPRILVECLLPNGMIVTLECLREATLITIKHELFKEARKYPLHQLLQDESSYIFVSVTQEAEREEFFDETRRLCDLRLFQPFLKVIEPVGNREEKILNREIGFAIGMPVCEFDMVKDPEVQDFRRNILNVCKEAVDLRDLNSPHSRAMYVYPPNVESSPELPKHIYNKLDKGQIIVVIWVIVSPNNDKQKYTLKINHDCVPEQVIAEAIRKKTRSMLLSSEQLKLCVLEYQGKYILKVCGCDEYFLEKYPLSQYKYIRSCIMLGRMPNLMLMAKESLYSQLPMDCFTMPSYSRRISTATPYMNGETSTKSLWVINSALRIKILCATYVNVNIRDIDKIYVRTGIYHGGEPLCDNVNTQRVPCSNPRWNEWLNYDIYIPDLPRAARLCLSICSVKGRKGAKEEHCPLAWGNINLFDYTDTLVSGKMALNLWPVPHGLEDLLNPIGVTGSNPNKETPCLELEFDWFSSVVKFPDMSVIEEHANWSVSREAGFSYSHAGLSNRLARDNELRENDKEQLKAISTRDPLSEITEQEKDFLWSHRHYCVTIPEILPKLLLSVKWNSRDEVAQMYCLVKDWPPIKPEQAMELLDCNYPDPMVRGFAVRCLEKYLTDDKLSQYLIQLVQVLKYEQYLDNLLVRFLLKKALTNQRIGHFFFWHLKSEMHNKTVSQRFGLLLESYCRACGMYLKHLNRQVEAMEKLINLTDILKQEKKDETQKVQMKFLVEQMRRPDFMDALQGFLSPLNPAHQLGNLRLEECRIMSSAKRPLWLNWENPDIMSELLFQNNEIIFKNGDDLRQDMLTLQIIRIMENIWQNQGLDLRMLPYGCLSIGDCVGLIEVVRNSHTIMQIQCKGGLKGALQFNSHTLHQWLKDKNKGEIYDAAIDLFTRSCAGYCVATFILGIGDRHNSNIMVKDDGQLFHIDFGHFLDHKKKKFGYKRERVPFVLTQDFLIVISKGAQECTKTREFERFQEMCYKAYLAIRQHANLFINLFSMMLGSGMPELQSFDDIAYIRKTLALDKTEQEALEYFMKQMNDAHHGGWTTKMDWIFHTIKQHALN

Row | IC50 | SMILES
1 | ≤ 10 nM | Cc1ncnc(N2CCOc3ccc(-c4cnc(N)s4)cc3C2)c1Cc1ccc(F)cc1
2 | 50 to 250 nM | Cc1nc2ncc(-c3ccc4c(c3)CN(c3ncnc(C)c3C)CCO4)cc2[nH]1
3 | 10 to 50 nM | CN(C)Cc1nc2c(c(N3CCOc4ccc(-c5ccc6[nH]c(C(F)F)nc6c5)cc4C3)n1)CC(C)(C)CC2
4 | 50 to 250 nM | Cc1nc2ncc(-c3ccc4c(c3)CN(c3ncnc(N5CCN(C)CC5)c3C)CCO4)cc2[nH]1
5 | 50 to 250 nM | Cc1nc2ccc(-c3ccc4c(c3)CN(c3ccnc5cc(C#N)ccc35)CCO4)cc2[nH]1
6 | ≤ 10 nM | CC[C@H]1CCc2c(ncnc2N2CCOc3ccc(-c4cnc5nc(NC(=O)OC)[nH]c5c4)cc3C2)C1
7 | 10 to 50 nM | CC1(C)C=Cc2ncnc(N3CCOc4ccc(-c5cnc(N)c(S(=O)(=O)N6CC[C@@H](N)C6)c5)cc4C3)c2C1
8 | 10 to 50 nM | Cc1nc2cc(-c3ccc4c(c3)CN(c3ncnc5c3CC3(CC5)CC3)CCO4)cnc2[nH]1
9 | 250 to 1000 nM | CC1(C)CCc2ncnc(N3CCOc4ccc(-c5cnc(C(N)=O)c(N)c5)cc4C3)c2C1
10 | 10 to 50 nM | CCCc1c(C)nc(CN(C)C)nc1N1CCOc2ccc(-c3ccc4nc(C)[nH]c4c3)cc2C1
11 | 10 to 50 nM | CNS(=O)(=O)c1cc(-c2ccc3c(c2)CN(c2ncnc4c2CC(C)(C)C=C4)CCO3)cnc1N
12 | ≤ 10 nM | CCNCc1nc2c(c(N3CCOc4ccc(-c5cnc6nc(C)[nH]c6c5)cc4C3)n1)CC(C)(C)CC2
13 | 10 to 50 nM | Cc1nc2ncc(-c3ccc4c(c3)CN(c3nc(CNCC(F)F)nc5c3CC(C)(C)CC5)CCO4)cc2[nH]1
14 | 50 to 250 nM | CC1(C)CCc2ncnc(N3CCOc4ccc(-c5cnc(N)c(S(=O)(=O)N6CC(F)(F)C6)c5)cc4C3)c2C1
15 | 10 to 50 nM | COc1ccc2c(N3CCOc4ccc(-c5ccc(OC)c(OC)c5)cc4C3)nc(CN(C)C)nc2c1
16 | 10 to 50 nM | Cc1nc2cc(-c3ccc4c(c3)CN(c3ncnc(C)c3Cc3ccc(F)cc3)CCO4)cnc2[nH]1
17 | ≤ 10 nM | COC(=O)Nc1nc2ncc(-c3ccc4c(c3)CN(c3ncnc5c3CC(C)(C)CC5)CCO4)cc2[nH]1
18 | 10 to 50 nM | CCNc1ncnc(N2CCOc3ccc(-c4cnc5nc(C)[nH]c5c4)cc3C2)c1C
19 | ≤ 10 nM | Cc1nc2ncc(-c3ccc4c(c3)CN(c3nc(CNS(C)(=O)=O)nc5c3CC(C)(C)CC5)CCO4)cc2[nH]1
20 | 10 to 50 nM | Cc1ncnc(N2CCOc3ccc(-c4ccn5nc(N)nc5c4)cc3C2)c1Cc1ccc(F)cc1
21 | 10 to 50 nM | Cc1ccc2ncnc(N3CCOc4ccc(-c5ccc6nc(C)[nH]c6c5)cc4C3)c2c1
22 | 10 to 50 nM | CC(=O)OCc1nc(C)c(Cc2ccc(F)cc2)c(N2CCOc3ccc(-c4ccc5[nH]c(C)nc5c4)cc3C2)n1

Row | IC50 | SMILES
23 | 50 to 250 nM | Cc1nc2c(c(N3CCOc4ccc(-c5cnc6nc(C7CC7)[nH]c6c5)cc4C3)n1)CC(C)(C)CC2
24 | ≤ 10 nM | COc1ccc2c(N3CCOc4ccc(-c5cnc(N)s5)cc4C3)nc(C)nc2c1
25 | 50 to 250 nM | Cc1nc2c(c(N3CCOc4ccc(-c5cnc(N)c(S(=O)(=O)NCC6CCN(C)CC6)c5)cc4C3)n1)CC(C)(C)CC2
26 | 50 to 250 nM | CCNc1nc2ccc(-c3ccc4c(c3)CN(c3nc(C)nc(Nc5ccccc5)c3C)CCO4)cc2[nH]1
27 | 10 to 50 nM | CC1(C)CCc2ncnc(N3CCOc4ccc(-c5cnc(N)c(S(=O)(=O)NCC(O)C(F)(F)F)c5)cc4C3)c2C1 (stereo unspecified)
28 | 10 to 50 nM | CC1(C)CCc2ncnc(N3CCOc4ccc(-c5cnc(N)c(S(=O)(=O)CCCO)c5)cc4C3)c2C1
29 | 50 to 250 nM | Cc1nc2ncc(-c3ccc4c(c3)CN(c3ncnc(N5CCOCC5)c3C)CCO4)cc2[nH]1
30 | 10 to 50 nM | Cc1nc2ncc(-c3ccc4c(c3)CN(c3nc(CNC5CCC5)nc5c3CC(C)(C)CC5)CCO4)cc2[nH]1
31 | 10 to 50 nM | CCc1ncnc(N2CCOc3ccc(-c4ccc5nc(C)[nH]c5c4)cc3C2)c1Cc1ccccc1
32 | ≤ 10 nM | Cc1nc2cc(-c3ccc4c(c3)CN(c3nc(CN(C)C)nc(C)c3C(C)C)CCO4)ccc2[nH]1
33 | 50 to 250 nM | Cc1nc2ncc(-c3ccc4c(c3)CN(c3ncnc5c3CC[C@@H](C)C5)CCO4)cc2[nH]1
34 | 10 to 50 nM | c1ccc2c(N3CCOc4ccc(-c5ccc6nc[nH]c6c5)cc4C3)ncnc2c1
35 | 10 to 50 nM | Cc1nc2ccc(-c3ccc4c(c3)CN(c3nc(CN(C)C)nc(C)c3CC3CC3)CCO4)cc2[nH]1
36 | 10 to 50 nM | CCc1nc(CN(C)C)nc(N2CCOc3ccc(-c4cnc5[nH]c(C)nc5c4)cc3C2)c1C
37 | 10 to 50 nM | Cc1nc2ccc(-c3ccc4c(c3)CN(c3ncnc5c3CCC(C)C5)CCO4)cc2[nH]1 (stereo unspecified)
38 | 10 to 50 nM | COc1ccc(-c2ccc3c(c2)CN(c2nc(CN(C)C)nc4c2CC(C)(C)CC4)CCO3)cc1OC(F)F
39 | 50 to 250 nM | CC1(C)CCc2ncnc(N3CCOc4ccc(-c5cnc(N)c(S(=O)(=O)NCC6(N)CC6)c5)cc4C3)c2C1
40 | 10 to 50 nM | COc1c(Br)ccc2c(N3CCOc4ccc(-c5ccc6nc(C)[nH]c6c5)cc4C3)ncnc12
41 | 250 to 1000 nM | CCCOc1ccc2ncnc(N3CCOc4ccc(-c5ccc6nc(C)[nH]c6c5)cc4C3)c2c1
42 | 50 to 250 nM | CC1(C)CCc2ncnc(N3CCOc4ccc(-c5cnc(N)c(S(=O)(=O)NC(C)(C)CO)c5)cc4C3)c2C1
43 | 50 to 250 nM | CN1CCN(S(=O)(=O)c2cc(-c3ccc4c(c3)CN(c3ncnc5c3CC(C)(C)CC5)CCO4)cnc2N)CC1
44 | ≤ 10 nM | Cc1nc(CN(C)C)nc(N2CCOc3ccc(-c4cnc5sc(N)nc5c4)cc3C2)c1C

Row | IC50 | SMILES
45 | 50 to 250 nM | CC1(C)CCc2ncnc(N3CCOc4ccc(-c5cnc(N)c(S(=O)(=O)N6CCCC(N)C6)c5)cc4C3)c2C1 (stereo unspecified)
46 | ≤ 10 nM | CCNc1nc2ccc(-c3ccc4c(c3)CN(c3ncnc5cc(F)ccc35)CCO4)cc2[nH]1
47 | 50 to 250 nM | CC(=O)OCc1nc(C)c(C(C)C)c(N2CCOc3ccc(-c4ccc5nc(C)[nH]c5c4)cc3C2)n1
48 | 10 to 50 nM | COCCNCc1nc2c(c(N3CCOc4ccc(-c5ccc6nc(C)[nH]c6c5)cc4C3)n1)CC(C)(C)CC2
49 | 10 to 50 nM | CCN(Cc1nc2c(c(N3CCOc4ccc(-c5cnc6nc(C)[nH]c6c5)cc4C3)n1)CC(C)(C)CC2)C(C)C
50 | 10 to 50 nM | Cc1nc2ccc(-c3ccc4c(c3)CN(c3ncnc(C)c3Cc3cccc(Cl)c3)CCO4)cc2[nH]1
51 | ≤ 10 nM | CN(C)Cc1nc2c(c(N3CCOc4ccc(-c5cnc6sc(N)nc6c5)cc4C3)n1)CC(C)(C)CC2
52 | 250 to 1000 nM | CC1(C)CCc2ncnc(N3CCOc4ccc(-c5cnc(Cl)c(OC(F)F)c5)cc4C3)c2C1
53 | 250 to 1000 nM | CCNc1nc2ccc(-c3ccc4c(c3)CN(c3cc(Nc5ccc(OC)cc5)ncn3)CCO4)cc2[nH]1
54 | 250 to 1000 nM | Cc1c(NCC2CCN(C)CC2)ncnc1N1CCOc2ccc(-c3cnc4nc(C5CC5)[nH]c4c3)cc2C1
55 | 10 to 50 nM | Nc1nc2ncc(-c3ccc4c(c3)CN(c3ncnc5cccnc35)CCO4)cc2[nH]1
56 | 250 to 1000 nM | Cc1nc2ccc(-c3ccc4c(c3)CN(c3ncnc5c(Cl)cc(Cl)cc35)CCO4)cc2[nH]1
57 | 10 to 50 nM | CN(C)c1ncc(-c2ccc3c(c2)CN(c2ncnc4c2CC(C)(C)CC4)CCO3)cc1NS(C)(=O)=O
58 | ≤ 10 nM | C[C@@H](CO)CS(=O)(=O)c1cc(-c2ccc3c(c2)CN(c2ncnc4c2CC(C)(C)CC4)CCO3)cnc1N
59 | 10 to 50 nM | CC1(C)CCc2ncnc(N3CCOc4ccc(-c5cnc(N)c(S(=O)(=O)N6CC[C@H](N)C6)c5)cc4C3)c2C1
60 | 50 to 250 nM | CC1(C)CCc2ncnc(N3CCOc4ccc(-c5cnc(N)c(S(=O)(=O)NC[C@@H]6CCCN6)c5)cc4C3)c2C1
61 | 50 to 250 nM | Cc1nc2ncc(-c3ccc4c(c3)CN(c3ncnc5c3CCCC5(C)C)CCO4)cc2[nH]1
62 | 10 to 50 nM | CC1(C)CCc2ncnc(N3CCOc4ccc(-c5cnc(N)c(S(=O)(=O)N6CC(O)(CO)C6)c5)cc4C3)c2C1
63 | ≤ 10 nM | Cc1nc(CN(C)C)nc(N2CCOc3ccc(-c4cnc5sc(N)nc5c4)cc3C2)c1CC1CC1
64 | 10 to 50 nM | CNc1ncnc(N2CCOc3ccc(-c4cnc5nc(C)[nH]c5c4)cc3C2)c1C
65 | ≤ 10 nM | CC[C@H]1CCc2c(nc(CN(C)C)nc2N2CCOc3ccc(-c4cnc5nc(C)[nH]c5c4)cc3C2)C1
66 | 10 to 50 nM | CC1(C)CCc2ncnc(N3CCOc4ccc(-c5cnc(N)c(S(=O)(=O)CC(O)CO)c5)cc4C3)c2C1 (stereo unspecified)

Row | IC50 | SMILES
67 | 250 to 1000 nM | Cn1c(N)nc2cc(-c3ccc4c(c3)CN(c3ccnc5ccccc35)CCO4)ccc21
68 | 10 to 50 nM | Cc1nc2cc(-c3ccc4c(c3)CN(c3nc(CN(C)C)ncc3C(C)C)CCO4)ccc2[nH]1
69 | 10 to 50 nM | CC1(C)CCc2ncnc(N3CCOc4ccc(-c5cnc(N)c(S(=O)(=O)N6CC[C@@H](O)C6)c5)cc4C3)c2C1
70 | 10 to 50 nM | CC1(C)CCc2ncnc(N3CCOc4ccc(-c5cnc(N)c(S(=O)(=O)N6CCC(N)C6)c5)cc4C3)c2C1 (stereo unspecified)
71 | 50 to 250 nM | COC(=O)Nc1nc2ccc(-c3ccc4c(c3)CN(c3nccc5ccccc35)CCO4)cc2[nH]1
72 | 10 to 50 nM | CN1CCC(CNS(=O)(=O)c2cc(-c3ccc4c(c3)CN(c3ncnc5c3CC(C)(C)CC5)CCO4)cnc2N)CC1
73 | ≤ 10 nM | CC(C)NS(=O)(=O)c1cc(-c2ccc3c(c2)CN(c2ncnc4c2CC(C)(C)CC4)CCO3)cnc1N
74 | ≤ 10 nM | CC1(C)CCc2ncnc(N3CCOc4ccc(-c5cnc(N)c(S(N)(=O)=O)c5)cc4C3)c2C1
75 | 10 to 50 nM | Cc1nc2ccc(-c3ccc4c(c3)CN(c3nc(CO)nc(C)c3C(C)C)CCO4)cc2[nH]1
76 | 50 to 250 nM | CC1(C)CCc2ncnc(N3CCOc4ccc(-c5cnc(O)c(S(=O)(=O)N6CC[C@H](N)C6)c5)cc4C3)c2C1
77 | ≤ 10 nM | CC[C@H]1CCc2c(nc(C)nc2N2CCOc3ccc(-c4cnc(N)c(S(=O)(=O)N5CCC(C)(N)C5)c4)cc3C2)C1 (stereo partly specified)
78 | 50 to 250 nM | Cc1ncnc(N2CCOc3ccc(-c4ccc5[nH]nc(N)c5c4)cc3C2)c1Cc1ccc(F)cc1
79 | 50 to 250 nM | COc1ccc(-c2ccc3c(c2)CN(c2nc(CN(C)C)nc4c2CC(C)(C)CC4)CCO3)cn1
80 | 250 to 1000 nM | Cc1ncnc(N2CCOc3ccc(-c4cnc(N)cn4)cc3C2)c1Cc1ccc(F)cc1
81 | 10 to 50 nM | Cc1nc2ccc(-c3ccc4c(c3)CN(c3ncnc5c(Cl)cccc35)CCO4)cc2[nH]1
82 | ≤ 10 nM | CC1(C)CCc2ncnc(N3CCOc4ccc(-c5cnc(N)c(S(=O)(=O)NCCCN)c5)cc4C3)c2C1
83 | 10 to 50 nM | CCNc1nc2ccc(-c3ccc4c(c3)CN(c3ccnc5ccc(F)cc35)CCO4)cc2[nH]1
84 | 50 to 250 nM | CNCc1nc2ncc(-c3ccc4c(c3)CN(c3ncnc5c3CC(C)(C)CC5)CCO4)cc2[nH]1
85 | ≤ 10 nM | CN(C)Cc1nc2c(c(N3CCOc4ccc(-c5ccc6[nH]c(CF)nc6c5)cc4C3)n1)CC(C)(C)CC2
86 | 50 to 250 nM | COc1c(OCC(C)C)ccc2c(N3CCOc4ccc(-c5ccc6nc(C)[nH]c6c5)cc4C3)ncnc12
